The source of these data is publication PMC8268887, “Peptide/β-Peptoid Hybrids with Ultrashort PEG-Like Moieties: Effects on Hydrophobicity, Antibacterial Activity and Hemolytic Properties” (International Journal of Molecular Sciences, 2021).

Series [1] is described as follows: Determination of hemolytic activity. Format: cell-based. The conditions noted are these: red blood cell suspension in PBS buffer, human red blood cells at 400 µg/mL, 37 °C. The gist of the method:
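Fresh human RBCs, PBS-washed, used as 1% suspension with compound at 400 μg/mL final for 60 min at 37 °C with mild agitation, triplicate wells. Released hemoglobin read at OD 405 nm in supernatant; % hemolysis normalized to 1% SDS (100%) and PBS (0%), averages reported.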

A short description of series [2]: Estimation of log D values (n-octanol/PBS pH 7.4, LC-MS, log Dmax from LOQ). Format: physicochemical. The conditions noted are these: n-octanol/PBS pH 7.4, 25 °C; indicative threshold from LOQ in octanol phase. As to the method:
A phosphate buffered saline (PBS) pH 7.4 was prepared and then saturated with n-octanol. Likewise, an n-octanol solution saturated with pH 7.4 PBS buffer was also prepared. Both solutions were shaken for 24 h, and then left for 24 h in a separating funnel to ensure complete separation of the two phases. This provided an aqueous phase (PBS buffer saturated with n-octanol) and an n-octanol phase (saturated with PBS buffer).
Samples for log D determination were prepared as following: All compounds were dissolved in PBS buffer at a concentration 4 mg/mL, which was used as stock solutions. PBS-saturated n-octanol (1.0 mL), n-octanol-saturated PBS (0.76 mL) and sample stock solution (0.24 mL) were placed into a 4-mL clear glass vial and incubated on Biosan Thermo Shaker TS-100 at 1000 rpm and 25 °C. For optimization of the assay, the incubation time was varied from 5 h to 48 h. […] After incubation samples were centrifugated and left for 30 min to ensure complete separation of the phases. The distribution coefficient was determined by quantification of the compounds both in the aqueous and n-octanol phases. Then, 100 µL of each phase were transferred to 1.5 mL champagne glass vial and evaporated using a GeneVac EZ-2 PLUS evaporation instrument. Before LC-MS analysis samples were diluted with 200 µL MeCN–0.1% aqueous formic acid (1:1, v/v).
LC-MS was performed on Acquity UPLC chromatograph coupled with a MICROMASS QUATTRO micro^TM API tandem mass spectrometer. The mass spectrometer was operated in positive electrospray ionisation mode. Parameter settings were as follows: desolvation gas (N2) flow was 600 L/h; desolvation gas temperature was 400 °C; capillary voltage, 3.30 kV; ion source temperature was 120 °C. Initial data acquisition was carried out in full-scan mode to select the most abundant ions of the individual compounds.
Waters Acquity UPLC column BEH C18 (2.1 × 50 mm, 1.7 µm particle size) was applied for analysis. Acetonitrile and 0.1% aqueous formic acid mixtures were used as mobile phase at a flow rate of 0.4 mL/min with the following gradient: 0.0–2.5 min 5–98% MeCN, 2.5–3.5 min 98% MeCN. Injection volume was 2 µL.
Limit of quantitation (LOQ) was determined using S/N ratio for each compound and used for log Dmax calculations according to the following equation:(2) log Dmax = log (theoretical peak area of n-octanol phase at LOQ concentration/peak area of buffer base) Theoretical peak area at LOQ was calculated according to the calibration curve for each compound.

Series [3] has as its system E. faecalis ATCC 29212. Format: cell-based. Conditions: ATCC 29212, 20 h. Put shortly:
(§1)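 Broth microdilution in Mueller-Hinton broth with Mg2+ and Ca2+ at 4 mg/L each, inoculum ~5 × 10^5 CFU/mL. Compounds diluted in 0.01% acetic acid, 0.2% BSA (final) using low-binding plastics; MIC read after 20 h at 35 °C (±2 °C) with shaking at 180 rpm.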

Series [4] concerns K. pneumoniae ATCC 13883. Format: cell-based. Put shortly: as §1
The test system of series [5] is S. aureus ATCC 29213. Format: cell-based, Staphylococcus aureus. The conditions noted are these: ATCC 29213, 20 h. Put shortly:
as §1

≈ marks a conversion by molar mass, not a printed value. Where two headings read alike, the source gives them in different places.

Take `NCCCC[C@H](NC(=O)CCN(Cc1ccc(F)cc1)C(=O)[C@H](CCCCN)NC(=O)CCN(Cc1ccc(F)cc1)C(=O)[C@H](CCCCN)NC(=O)CCN(Cc1ccc(F)cc1)C(=O)[C@H](CCCCN)NC(=O)CCN(Cc1ccc(F)cc1)C(=O)[C@H](CCCCN)NC(=O)CCN(Cc1ccc(F)cc1)C(=O)[C@@H](N)CCCCN)C(=O)N(CCC(N)=O)Cc1ccc(F)cc1` [Compound 1, H-[Lys-βNPhe(4-F)]6-NH2]: the hemolysis at 60 min in series [1] was determined as 6.6%. In addition, the “log Dmax” value in series [2] is less than −2.662. The “MIC, EF” value in series [3] is recorded as greater than 64 µg/mL. Also, the “MIC, KP” value in series [4] was 64–>64. In addition, the “MIC, SA” value in series [5] is recorded as 16 µg/mL (≈ 8.6 µM).
The compound `NCCCC[C@H](NC(=O)CCN(Cc1ccc(F)cc1)C(=O)[C@H](CCCCN)NC(=O)CCN(Cc1ccc(F)cc1)C(=O)[C@H](CCCCN)NC(=O)COCCOCCN)C(=O)N(CCC(=O)NCCOCCOCC(=O)N[C@@H](CCCCN)C(=O)N(CCC(=O)N[C@@H](CCCCN)C(=O)N(CCC(=O)N[C@@H](CCCCN)C(=O)N(CCC(=O)NCCOCCOCC(N)=O)Cc1ccc(F)cc1)Cc1ccc(F)cc1)Cc1ccc(F)cc1)Cc1ccc(F)cc1` [Compound 12, H-sPEG2-[X]3-sPEG2-[X]3-sPEG2-NH2] registered a hemolysis at 60 min in series [1] of 8.1%. For the same compound, the “log Dmax” value in series [2] is given as less than −3.147. The “MIC, EF” value in series [3] is on record as greater than 64 µg/mL. Further, the “MIC, KP” value in series [4] (ATCC 13883, 20 h) was greater than 64 µg/mL. Further, the “MIC, SA” value in series [5] was greater than 64 µg/mL.
On to `NCCCC[C@H](NC(=O)CCN(Cc1ccc(F)cc1)C(=O)[C@H](CCCCN)NC(=O)CCN(Cc1ccc(F)cc1)C(=O)[C@H](CCCCN)NC(=O)CCOCCOCCOCCOCCNC(=O)CCN(Cc1ccc(F)cc1)C(=O)[C@H](CCCCN)NC(=O)CCN(Cc1ccc(F)cc1)C(=O)[C@H](CCCCN)NC(=O)CCN(Cc1ccc(F)cc1)C(=O)[C@@H](N)CCCCN)C(=O)N(CCC(N)=O)Cc1ccc(F)cc1` [Compound 9, H-[X]3-sPEG4-[X]3-NH2], for which the hemolysis at 60 min in series [1] worked out at 7.1%. Moreover, the “log Dmax” value in series [2] was less than −3.627. Further, the “MIC, EF” value in series [3] is given as greater than 64 µg/mL. The “MIC, KP” value in series [4] (ATCC 13883, 20 h) was greater than 64 µg/mL. Further, the “MIC, SA” value in series [5] is greater than 64 µg/mL.
As for `NCCCC[C@H](NC(=O)CCN(Cc1ccc(F)cc1)C(=O)[C@H](CCCCN)NC(=O)CCN(Cc1ccc(F)cc1)C(=O)[C@H](CCCCN)NC(=O)COCCOCCOCCN)C(=O)N(CCC(=O)NCCOCCOCCOCC(=O)N[C@@H](CCCCN)C(=O)N(CCC(=O)N[C@@H](CCCCN)C(=O)N(CCC(=O)N[C@@H](CCCCN)C(=O)N(CCC(=O)NCCOCCOCCOCC(N)=O)Cc1ccc(F)cc1)Cc1ccc(F)cc1)Cc1ccc(F)cc1)Cc1ccc(F)cc1` [Compound 13, H-sPEG3-[X]3-sPEG3-[X]3-sPEG3-NH2], the hemolysis at 60 min in series [1] came out at 7.8%. In series [2], the “log Dmax” value is listed as less than −3.911. In series [3], the “MIC, EF” value was greater than 64 µg/mL. Further, in series [4] (ATCC 13883, 20 h), the “MIC, KP” value is greater than 64 µg/mL. The “MIC, SA” value in series [5] is listed as greater than 64 µg/mL.
Regarding `NCCCC[C@H](NC(=O)CCN(Cc1ccc(F)cc1)C(=O)[C@H](CCCCN)NC(=O)COCCNC(=O)CCN(Cc1ccc(F)cc1)C(=O)[C@H](CCCCN)NC(=O)CCN(Cc1ccc(F)cc1)C(=O)[C@H](CCCCN)NC(=O)COCCNC(=O)CCN(Cc1ccc(F)cc1)C(=O)[C@H](CCCCN)NC(=O)CCN(Cc1ccc(F)cc1)C(=O)[C@@H](N)CCCCN)C(=O)N(CCC(N)=O)Cc1ccc(F)cc1` [Compound 15, H-[X]2-sPEG1-[X]2-sPEG1-[X]2-NH2], in series [1], the hemolysis at 60 min came to 4.8%. Further, in series [2], the “log Dmax” value is less than −3.180. The “MIC, EF” value in series [3] is reported as greater than 64 µg/mL. Moreover, the “MIC, KP” value in series [4] was 64–>64. In addition, the “MIC, SA” value in series [5] is given as greater than 64 µg/mL.
Compound `NCCCC[C@H](NC(=O)CCN(Cc1ccc(F)cc1)C(=O)[C@H](CCCCN)NC(=O)CCN(Cc1ccc(F)cc1)C(=O)[C@H](CCCCN)NC(=O)CCOCCOCCOCCOCCOCCOCCNC(=O)CCN(Cc1ccc(F)cc1)C(=O)[C@H](CCCCN)NC(=O)CCN(Cc1ccc(F)cc1)C(=O)[C@H](CCCCN)NC(=O)CCN(Cc1ccc(F)cc1)C(=O)[C@@H](N)CCCCN)C(=O)N(CCC(N)=O)Cc1ccc(F)cc1` [Compound 10, H-[X]3-sPEG6-[X]3-NH2] yielded a hemolysis at 60 min in series [1] of 6.3%. Also, in series [2], the “log Dmax” value is on record as less than −2.994. Also, in series [3], the “MIC, EF” value is greater than 64 µg/mL. Moreover, the “MIC, KP” value in series [4] (ATCC 13883, 20 h) was 64 µg/mL (≈ 29.1 µM). Moreover, the “MIC, SA” value in series [5] is on record as greater than 64 µg/mL.
Take `NCCCC[C@H](NC(=O)CCN(Cc1ccc(F)cc1)C(=O)[C@H](CCCCN)NC(=O)CCN(Cc1ccc(F)cc1)C(=O)[C@H](CCCCN)NC(=O)COCCN)C(=O)N(CCC(=O)NCCOCC(=O)N[C@@H](CCCCN)C(=O)N(CCC(=O)N[C@@H](CCCCN)C(=O)N(CCC(=O)N[C@@H](CCCCN)C(=O)N(CCC(=O)NCCOCC(N)=O)Cc1ccc(F)cc1)Cc1ccc(F)cc1)Cc1ccc(F)cc1)Cc1ccc(F)cc1` [Compound 11, H-sPEG1-[X]3-sPEG1-[X]3-sPEG1-NH2]: the hemolysis at 60 min in series [1] was 4.6%. In series [2], the “log Dmax” value is less than −2.876. In series [3], the “MIC, EF” value is reported as greater than 64 µg/mL. Moreover, the “MIC, KP” value in series [4] (ATCC 13883, 20 h) was greater than 64 µg/mL. Moreover, the “MIC, SA” value in series [5] is recorded as greater than 64 µg/mL.
Compound `NCCCC[C@H](NC(=O)CCN(Cc1ccc(F)cc1)C(=O)[C@H](CCCCN)NC(=O)COCCOCCNC(=O)CCN(Cc1ccc(F)cc1)C(=O)[C@H](CCCCN)NC(=O)CCN(Cc1ccc(F)cc1)C(=O)[C@H](CCCCN)NC(=O)COCCOCCNC(=O)CCN(Cc1ccc(F)cc1)C(=O)[C@H](CCCCN)NC(=O)CCN(Cc1ccc(F)cc1)C(=O)[C@@H](N)CCCCN)C(=O)N(CCC(N)=O)Cc1ccc(F)cc1` [Compound 16, H-[X]2-sPEG2-[X]2-sPEG2-[X]2-NH2] had a hemolysis at 60 min in series [1] of 5.7%. Also, the “log Dmax” value in series [2] was less than −3.922. In series [3], the “MIC, EF” value is greater than 64 µg/mL. The “MIC, KP” value in series [4] (ATCC 13883, 20 h) was found to be 64 µg/mL (≈ 29.7 µM). For the same compound, in series [5], the “MIC, SA” value lay in the range of 32 to 64 µg/mL.
On the same counts, the results for `NCCCC[C@H](NC(=O)CCN(Cc1ccc(F)cc1)C(=O)[C@H](CCCCN)NC(=O)CCN(Cc1ccc(F)cc1)C(=O)[C@H](CCCCN)NC(=O)CCOCCOCCOCCOCCN)C(=O)N(CCC(=O)NCCOCCOCCOCCOCCC(=O)N[C@@H](CCCCN)C(=O)N(CCC(=O)N[C@@H](CCCCN)C(=O)N(CCC(=O)N[C@@H](CCCCN)C(=O)N(CCC(=O)NCCOCCOCCOCCOCCC(N)=O)Cc1ccc(F)cc1)Cc1ccc(F)cc1)Cc1ccc(F)cc1)Cc1ccc(F)cc1` [Compound 14, H-sPEG4-[X]3-sPEG4-[X]3-sPEG4-NH2] are 9%, less than −2.883, greater than 64 µg/mL, greater than 64 µg/mL and greater than 64 µg/mL.
Regarding `NCCCC[C@H](NC(=O)CCN(Cc1ccc(F)cc1)C(=O)[C@H](CCCCN)NC(=O)CCN(Cc1ccc(F)cc1)C(=O)[C@H](CCCCN)NC(=O)COCCOCCNC(=O)CCN(Cc1ccc(F)cc1)C(=O)[C@H](CCCCN)NC(=O)CCN(Cc1ccc(F)cc1)C(=O)[C@H](CCCCN)NC(=O)CCN(Cc1ccc(F)cc1)C(=O)[C@@H](N)CCCCN)C(=O)N(CCC(N)=O)Cc1ccc(F)cc1` [Compound 7, H-[X]3-sPEG2-[X]3-NH2], in series [1], the hemolysis at 60 min was determined as 6.1%. The “log Dmax” value in series [2] is less than −3.650. Moreover, in series [4] (ATCC 13883, 20 h), the “MIC, KP” value is given as greater than 64 µg/mL.
